Values quoted from earlier work, collected in patent US20030077302A1, “Diclofenamide suspension gel” (priority 2000, published 2003).

Assays:
intraocular pressure = conditions: rabbits
[1] = rabbits, topical suspensions

Structure (SMILES) | tolerability, single applications (rabbit, in vivo) | side effects, repeated use (rabbits, solutions, repeated use) | reduction of the intraocular pressure (intraocular pressure; topical aqueous solution) | reduction of the intraocular pressure compared with suspensions of the free acid of diclofenamide (intraocular pressure; topical solutions) | aqueous humor values compared with solutions of sodium diclofenamide [1]
NS(=O)(=O)c1cc(Cl)c(Cl)c(S(N)(=O)=O)c1 [diclofenamide sodium] | well tolerated | severe undesirable side effects | clear and long lasting reduction of the intraocular pressure | clearly stronger and longer reduction of the intraocular pressure | –
NS(=O)(=O)c1cc(Cl)c(Cl)c(S(N)(=O)=O)c1 [diclofenamide, 4,5-dichlorbenzene-1,3-disulfonamide] | – | – | – | – | clearly at a lower level
